Experimental data reported in ChEMBL document CHEMBL5303573, “Mapping human microbiome drug metabolism by gut bacteria and their genes” (Nature, 2019).

Key:
[1] = The drug is tested on Blautia hansenii strain: DSM20583 for biotransformation. The drug concentrations were measured before and after a 12-h incubation by liquid-chromatography-coupled mass spectrometry (LC–MS); settings: 2 µM
[2] = The drug is tested on Bacteroides fragilis strain: ATCC43859 for biotransformation. The drug concentrations were measured before and after a 12-h incubation by liquid-chromatography-coupled mass spectrometry (LC–MS); settings: 2 µM
[3] = parabacteroides distasonis, 12 h, 2 µM
Description: The drug is tested on Parabacteroides distasonis strain: ATCC8503 for biotransformation. The drug concentrations were measured before and after a 12-h incubation by liquid-chromatography-coupled mass spectrometry (LC–MS)

[4] = The drug is tested on Subdoligranulum variabile strain: DSM15176 for biotransformation. The drug concentrations were measured before and after a 12-h incubation by liquid-chromatography-coupled mass spectrometry (LC–MS); settings: 2 µM
[5] = The drug is tested on Clostridium asparagiforme strain: DSM15981 for biotransformation. The drug concentrations were measured before and after a 12-h incubation by liquid-chromatography-coupled mass spectrometry (LC–MS); type: ADME; set-up: dose 2 uM, timepoint 0 vs 12 hours; settings: enterocloster asparagiformis, 2 µM
[6] = The drug is tested on Ruminococcus gnavus strain: ATCC29149 for biotransformation. The drug concentrations were measured before and after a 12-h incubation by liquid-chromatography-coupled mass spectrometry (LC–MS); settings: mediterraneibacter gnavus, 2 µM
[7] = The drug is tested on Eubacterium hallii strain: DSM3353 for biotransformation. The drug concentrations were measured before and after a 12-h incubation by liquid-chromatography-coupled mass spectrometry (LC–MS); settings: anaerobutyricum hallii, 2 µM
[8] = The drug is tested on Bacteroides dorei strain: DSM17855 for biotransformation. The drug concentrations were measured before and after a 12-h incubation by liquid-chromatography-coupled mass spectrometry (LC–MS); settings: phocaeicola dorei, 2 µM
[9] = The drug is tested on Eubacterium rectale strain: ATCC33656 for biotransformation. The drug concentrations were measured before and after a 12-h incubation by liquid-chromatography-coupled mass spectrometry (LC–MS); settings: agathobacter rectalis, 2 µM
[10] = bacteroides stercoris, 12 h, 2 µM
Description: The drug is tested on Bacteroides stercoris strain: ATCC43183 for biotransformation. The drug concentrations were measured before and after a 12-h incubation by liquid-chromatography-coupled mass spectrometry (LC–MS)

[11] = The drug is tested on Ruminococcus lactaris strain: ATCC29176 for biotransformation. The drug concentrations were measured before and after a 12-h incubation by liquid-chromatography-coupled mass spectrometry (LC–MS); settings: 2 µM
[12] = The drug is tested on Bifidobacterium longum subsp. Infantis strain: CCUG52486 for biotransformation. The drug concentrations were measured before and after a 12-h incubation by liquid-chromatography-coupled mass spectrometry (LC–MS); settings: 2 µM
[13] = enterocloster bolteae, 12 h, 2 µM
Description: The drug is tested on Clostridium bolteae strain: ATCCBAA-613 for biotransformation. The drug concentrations were measured before and after a 12-h incubation by liquid-chromatography-coupled mass spectrometry (LC–MS)

[14] = The drug is tested on Eubacterium ventriosum strain: ATCC27560 for biotransformation. The drug concentrations were measured before and after a 12-h incubation by liquid-chromatography-coupled mass spectrometry (LC–MS); type: ADME; set-up: dose 2 uM, timepoint 0 vs 12 hours; settings: 2 µM
[15] = The drug is tested on Coprococcus comes strain: ATCC27758 for biotransformation. The drug concentrations were measured before and after a 12-h incubation by liquid-chromatography-coupled mass spectrometry (LC–MS); type: ADME; set-up: dose 2 uM, timepoint 0 vs 12 hours; settings: 2 µM
[16] = The drug is tested on Bacteroides ovatus strain: ATCC8483 for biotransformation. The drug concentrations were measured before and after a 12-h incubation by liquid-chromatography-coupled mass spectrometry (LC–MS); settings: 2 µM
[17] = The drug is tested on Clostridium sp. strain: fecal isolate for biotransformation. The drug concentrations were measured before and after a 12-h incubation by liquid-chromatography-coupled mass spectrometry (LC–MS); settings: 2 µM
[18] = The drug is tested on Escherichia coli strain: BW25113 for biotransformation. The drug concentrations were measured before and after a 12-h incubation by liquid-chromatography-coupled mass spectrometry (LC–MS); settings: 2 µM
[19] = The drug is tested on Parabacteroides merdae strain: ATCC43184 for biotransformation. The drug concentrations were measured before and after a 12-h incubation by liquid-chromatography-coupled mass spectrometry (LC–MS); settings: 2 µM
[20] = The drug is tested on Bacteroides pectinophilus strain: ATCC43243 for biotransformation. The drug concentrations were measured before and after a 12-h incubation by liquid-chromatography-coupled mass spectrometry (LC–MS); settings: 2 µM

| SMILES | Bacterial Biotransformation [1] | Bacterial Biotransformation [2] | Bacterial Biotransformation [3] | Bacterial Biotransformation [4] | Bacterial Biotransformation [5] | Bacterial Biotransformation [6] | Bacterial Biotransformation [7] | Bacterial Biotransformation [8] | Bacterial Biotransformation [9] | Bacterial Biotransformation [10] | Bacterial Biotransformation [11] | Bacterial Biotransformation [12] | Bacterial Biotransformation [13] | Bacterial Biotransformation [14] | Bacterial Biotransformation [15] | Bacterial Biotransformation [16] | Bacterial Biotransformation [17] | Bacterial Biotransformation [18] | Bacterial Biotransformation [19] | Bacterial Biotransformation [20] |
| --- | --- | --- | --- | --- | --- | --- | --- | --- | --- | --- | --- | --- | --- | --- | --- | --- | --- | --- | --- | --- |
| O=c1[nH]c2ccccc2n1CCCN1CCC(n2c(=O)[nH]c3cc(Cl)ccc32)CC1 [DOMPERIDONE] | Compound NOT metabolized | Compound NOT metabolized | Compound NOT metabolized | Compound NOT metabolized | Compound NOT metabolized | Compound NOT metabolized | Compound NOT metabolized | Compound NOT metabolized | Compound NOT metabolized | Compound NOT metabolized | Compound NOT metabolized | Compound NOT metabolized | Compound NOT metabolized | Compound NOT metabolized | Compound NOT metabolized | Compound NOT metabolized | Compound NOT metabolized | Compound NOT metabolized | Compound NOT metabolized | Compound NOT metabolized |
| CC1OC(OC2C(O)CC(OC3C(O)CC(OC4CCC5(C)C(CCC6C5CCC5(C)C(C7=CC(=O)OC7)CCC65O)C4)OC3C)OC2C)CC(O)C1O (stereo not given) | Compound metabolized | Compound metabolized | Compound metabolized | Compound NOT metabolized | Compound NOT metabolized | Compound NOT metabolized | Compound NOT metabolized | Compound metabolized | Compound NOT metabolized | Compound metabolized | Compound NOT metabolized | Compound NOT metabolized | Compound NOT metabolized | Compound NOT metabolized | Compound NOT metabolized | Compound metabolized | Compound metabolized | Compound NOT metabolized | Compound metabolized | Compound NOT metabolized |
| CN1CCN(C2=Nc3ccccc3Oc3ccc(Cl)cc32)CC1.O=C(O)CCC(=O)O [LOXAPINE SUCCINATE] | Compound NOT metabolized | Compound NOT metabolized | Compound NOT metabolized | Compound NOT metabolized | Compound NOT metabolized | Compound NOT metabolized | Compound NOT metabolized | Compound NOT metabolized | Compound NOT metabolized | Compound NOT metabolized | Compound NOT metabolized | Compound NOT metabolized | Compound NOT metabolized | Compound NOT metabolized | Compound NOT metabolized | Compound NOT metabolized | Compound NOT metabolized | Compound NOT metabolized | Compound NOT metabolized | Compound NOT metabolized |
| Cc1cc2c(cc1S(N)(=O)=O)S(=O)(=O)CCC2 | Compound NOT metabolized | Compound NOT metabolized | Compound NOT metabolized | Compound NOT metabolized | Compound NOT metabolized | Compound NOT metabolized | Compound NOT metabolized | Compound NOT metabolized | Compound NOT metabolized | Compound NOT metabolized | Compound NOT metabolized | Compound NOT metabolized | Compound NOT metabolized | Compound NOT metabolized | Compound NOT metabolized | Compound NOT metabolized | Compound NOT metabolized | Compound NOT metabolized | Compound NOT metabolized | Compound NOT metabolized |
| CC(=O)O[C@]1(C(C)=O)CC[C@H]2[C@@H]3C=C(C)C4=CC(=O)CC[C@]4(C)[C@H]3CC[C@@]21C [MEGESTROL ACETATE] | Compound metabolized | Compound metabolized | Compound metabolized | Compound NOT metabolized | Compound NOT metabolized | Compound NOT metabolized | Compound NOT metabolized | Compound metabolized | Compound NOT metabolized | Compound metabolized | Compound NOT metabolized | Compound NOT metabolized | Compound NOT metabolized | Compound NOT metabolized | Compound NOT metabolized | Compound NOT metabolized | Compound metabolized | Compound metabolized | Compound metabolized | Compound NOT metabolized |
